Assay [1] deals with ligand-dependent transcription factors (AhR, ER, and AR). Briefly: Reporter gene (luciferase) assay in Neuro2a cells carrying PGV-THp03 (SEQ ID No: 2). It is filed as cell-based, mouse. The following applies: 10 nM, 30 hours, PGV-THp03, AhR-introduced Neuro2a. How it is done:
A vector (PGV-THp03) containing the upstream region (SEQ ID No: 2) ranging from about −300 to 0 position of the TH gene-coding region, which was prepared in Example 4, was used. Neuro2a was used as the cell.
Two kinds of vectors, pcDNA4-rAhR (Example 1) and pcDNA4/V5-His/lacZ (Invitrogen), were introduced into Neuro2a, together with PGV-THp03. pcDNA4-rAhR was introduced for constitutive expression of the SD-line rat AhR gene (SEQ ID No: 10) in the cell, and pcDNA4/V5-His/lacZ was introduced for normalization of the vector transfection efficiency.
The vectors were introduced into the cell by using LIPOFECTAMINE 2000 (Invitrogen). The cell was cultured on a 24-well plate, and the operation was performed according to the manual of Invitrogen. A total of […] of vectors (0.4 μg of PGV-THp03, 0.2 μg of pcDNA4-rAhR, and 0.2 μg of pcDNA4/V5-His/lacZ) suspended in 50 μl of OPTI-MEM medium and 2 μl of LIPOFECTAMINE 2000 suspended in 50 μl of OPTI-MEM medium were mixed, and incubated at room temperature for 20 minutes to form nucleic acid/LIPOFECTAMINE 2000 complex. The obtained suspension containing the complex was added to Neuro2a cell culture, which has been previously cultured overnight in 500 μl of DF1:1 medium (containing 10% fetal calf serum) (0.8×10^5 cells were seeded on previous day), to allow incorporation of the vectors into the cell. The cell was cultured additionally for 24 hours after transfection, for the purpose of improvement in vector incorporation efficiency and expression of the protein derived from the introduced vectors.
As the test substances, vinclozolin (10 μM), dimethyl phthalate (10 μM), benzopyrene (1 μM), and dioxin (TCDD) (10 nM) were used. After the transfection and the additional incubation for 24 hours, the medium was replaced with a fresh medium containing any one of the test substances, and the cell was cultured additionally for 30 hours. After 30 hours, the medium was removed from the 24-well plate, and the cell was washed with phosphate buffer twice. 100 μl of a protein extraction solution (manufactured by TOYO B-NET) was added to each well, and the cell suspension was stirred gently at room temperature for 15 minutes and then frozen at −80° C. The frozen solution was thawed at room temperature, and the resulting solution was recovered in a tube and diluted ten times with a protein extraction reagent containing 1 mg/ml bovine serum albumin luciferase and β-galactosidase activities in the diluted solution were measured, and the expression amount of the reporter gene was calculated as a relative luminescence intensity per 1 ng of β-galactosidase per second (RLU/sec/ng β-galactosidase).

Assay [2] concerns the target T1, aryl hydrocarbon receptor (Rattus norvegicus, UniProt P41738, Q794H).
T1 construct: The SD-line rat AhR gene-coding region was amplified from the reverse-transcribed sample by means of PCR; V5-His (C-terminal tag of vector pcDNA4/V5-His B); expressed in transfected cells; host or cells: mouse neuroblastoma Neuro2a, transient transfection with LIPOFECTAMINE 2000
T1 sequence (P41738 10-853 Q794H): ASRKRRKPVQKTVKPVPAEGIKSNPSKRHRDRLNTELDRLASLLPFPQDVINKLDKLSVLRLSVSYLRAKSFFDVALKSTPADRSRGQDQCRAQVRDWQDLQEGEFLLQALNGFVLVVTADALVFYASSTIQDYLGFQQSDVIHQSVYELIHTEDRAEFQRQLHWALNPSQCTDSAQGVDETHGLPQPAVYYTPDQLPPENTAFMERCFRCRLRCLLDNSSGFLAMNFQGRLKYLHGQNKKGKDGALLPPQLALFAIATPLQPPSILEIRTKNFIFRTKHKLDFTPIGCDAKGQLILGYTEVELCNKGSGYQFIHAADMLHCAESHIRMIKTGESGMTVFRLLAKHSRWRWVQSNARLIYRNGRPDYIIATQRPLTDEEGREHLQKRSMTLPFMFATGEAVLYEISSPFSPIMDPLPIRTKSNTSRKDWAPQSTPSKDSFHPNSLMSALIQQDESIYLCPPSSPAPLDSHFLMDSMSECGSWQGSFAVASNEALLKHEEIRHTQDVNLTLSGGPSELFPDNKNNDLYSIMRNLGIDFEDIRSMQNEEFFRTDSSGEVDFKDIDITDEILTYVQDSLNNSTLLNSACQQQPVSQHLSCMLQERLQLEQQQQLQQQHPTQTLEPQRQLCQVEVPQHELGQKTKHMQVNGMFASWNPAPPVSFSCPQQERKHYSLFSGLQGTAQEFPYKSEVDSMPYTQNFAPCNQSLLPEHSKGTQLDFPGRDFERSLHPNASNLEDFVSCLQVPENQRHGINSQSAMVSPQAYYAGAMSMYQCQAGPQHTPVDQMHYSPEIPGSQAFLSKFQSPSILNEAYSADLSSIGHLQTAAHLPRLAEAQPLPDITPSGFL
Kind of assay: Reporter gene assay in Neuro2a with pSV40E100/Luc and pTHE100/Luc (SEQ ID No: 3). It is filed as cell-based, SD-line rat. Conditions: 10 nM TCDD; pTHE100/Luc compared with pSV40E100/Luc. The protocol: The TH transcriptional regulatory region of SEQ ID No: 3 (−300 to −200 bp) was used in Example 6. The TH transcriptional regulatory region ranging from −300 to −200 position was prepared by PCR using the 500-bp size of TH transcriptional regulatory region as a template. The following primers were used.
Recognition sequences for restriction enzymes KpnI (for forward primer) and NheI (for reverse primer) were added to the terminal of the respective primers, for the purpose of facilitating incorporation of the PCR amplified fragment into the vector. The region of SEQ ID No: 3 was amplified by using Pyrobest DNA polymerase. The amplified DNA fragment was digested with restriction enzymes KpnI and NheI, and subjected to electrophoresis on agarose. The corresponding band was purified with a QIAQUICK Gel Extraction Kit, and incorporated into PGV-P2 vector previously digested with KpnI and NheI, to obtain a recombinant vector pSV40E100/Luc. The vector PGV-P2 used contains an SV40 early promoter as its promoter region.
In addition, the region of SEQ ID No: 5 (mouse TH gene core promoter region) was amplified by PCR using a forward primer: 5′-[…]-3′ (SEQ ID No: 27) and a reverse primer: 5′-[…]-3′ (SEQ ID No: 28), and using a region of approximately 500 by upstream of the TH gene as the template. […]
(In general: In a reporter assay the amount or activity of a reporter protein is the signal.)

For the compound `Clc1cc2c(cc1Cl)Oc1cc(Cl)c(Cl)cc1O2` [TCDD, 2,3,7,8-tetrachlorodibenzo-p-dioxine], in assay [1], the luciferase activity increase result is on record as “approximately 1.4 times”. Further, in assay [2], the “activity in response to test substance, TH gene core promoter versus SV40 early promoter” value is “higher activity in response to a test substance”.

Values taken from patent publication US7811760B2, “Vector and method for detecting the change in transcription amount” (priority 2006, dated 2010).
